The source of these data is US20040001827A1, “Serum albumin binding peptides for tumor targeting” (priority 2002, published 2004).

Read-outs that look alike come from different tables or passages of the source. Where a SMILES comes first, the peptide text is derived from it. Bridges are numbered along the chain shown (N, C = ends).

In the assay the target is T1, rabbit albumin (Oryctolagus cuniculus, UniProt P49065).
T1 construct: purchased Sigma, St. Louis Mo
The assay is described as follows: SA08b binding (peptide competition) assay, rabbit albumin. To be noted: for improvement in IC50 relative to core sequence (SA34 and SA19): rabbit albumin. From the text:
Plates were blocked as described above.
Peptides corresponding to identified phage sequences were synthesized and their affinity for rat, rabbit or mouse albumin measured using the SA08b binding assay.

T1 sequence (P49065 25-608): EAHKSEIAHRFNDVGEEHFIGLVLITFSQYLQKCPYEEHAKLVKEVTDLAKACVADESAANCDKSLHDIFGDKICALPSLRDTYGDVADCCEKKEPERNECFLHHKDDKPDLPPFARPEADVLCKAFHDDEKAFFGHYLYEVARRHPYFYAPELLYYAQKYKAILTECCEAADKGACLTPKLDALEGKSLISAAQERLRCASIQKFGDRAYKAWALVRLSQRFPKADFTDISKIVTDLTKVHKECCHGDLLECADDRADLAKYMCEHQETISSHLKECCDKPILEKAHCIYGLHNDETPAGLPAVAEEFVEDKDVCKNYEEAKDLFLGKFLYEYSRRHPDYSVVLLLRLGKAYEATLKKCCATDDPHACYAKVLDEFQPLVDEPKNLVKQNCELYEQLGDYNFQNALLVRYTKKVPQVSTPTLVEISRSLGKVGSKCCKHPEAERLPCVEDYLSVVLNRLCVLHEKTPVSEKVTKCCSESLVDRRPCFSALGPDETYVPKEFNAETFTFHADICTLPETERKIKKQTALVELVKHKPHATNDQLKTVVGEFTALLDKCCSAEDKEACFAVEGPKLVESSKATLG

As for `CC[C@H](C)[C@H](NC(=O)[C@H](CC(C)C)NC(=O)[C@H](CCCNC(=N)N)NC(C)=O)C(=O)N[C@@H](CCC(=O)O)C(=O)N[C@@H](CC(=O)O)C(=O)N[C@H](C(=O)N[C@H]1CSSC[C@@H](C(=O)N[C@@H](CC(C)C)C(=O)N[C@@H](Cc2c[nH]c3ccccc23)C(=O)N[C@@H](CCC(=O)O)C(=O)N[C@@H](CC(=O)O)C(N)=O)NC(=O)CNC(=O)[C@H](Cc2c[nH]c3ccccc23)NC(=O)[C@H](CCCNC(=N)N)NC(=O)[C@@H]2CCCN2C(=O)[C@H](CC(C)C)NC1=O)[C@@H](C)CC` [SA22] (Ac-RLIEDICLPRWGCLWED-NH2; disulfide 7-13), the “improvement in IC50 relative to core sequence (SA34 and SA19)” value turned out to be 60 fold.

In the case of `CC[C@H](C)[C@H](NC(=O)[C@H](CC(=O)O)NC(C)=O)C(=O)N[C@H]1CSSC[C@@H](C(=O)N[C@@H](CC(C)C)C(=O)N[C@@H](Cc2c[nH]c3ccccc23)C(=O)N[C@@H](CCC(=O)O)C(=O)N[C@@H](CC(=O)O)C(N)=O)NC(=O)CNC(=O)[C@H](Cc2c[nH]c3ccccc23)NC(=O)[C@H](CCCNC(=N)N)NC(=O)[C@@H]2CCCN2C(=O)[C@H](CC(C)C)NC1=O` [SA26] (Ac-DICLPRWGCLWED-NH2; disulfide 3-9), the “improvement in IC50 relative to core sequence (SA34 and SA19)” value is listed as “about 8.6 fold”.

By IC50 is commonly meant the concentration that gives 50% inhibition. `CC(=O)N[C@H]1CSSC[C@@H](C(=O)N[C@@H](CC(C)C)C(=O)N[C@@H](Cc2c[nH]c3ccccc23)C(=O)N[C@@H](CCC(=O)O)C(=O)N[C@@H](CC(=O)O)C(N)=O)NC(=O)CNC(=O)[C@H](Cc2c[nH]c3ccccc23)NC(=O)[C@H](CCCNC(=N)N)NC(=O)[C@@H]2CCCN2C(=O)[C@H](CC(C)C)NC1=O` [SA28] (Ac-CLPRWGCLWED-NH2; disulfide 1-7) came in with a half-maximal inhibitory concentration (IC50) greater than 400 µM.

Take `CC[C@H](C)[C@H](NC(=O)[C@H](CC(C)C)NC(=O)[C@H](CCCNC(=N)N)NC(C)=O)C(=O)N[C@@H](CCC(=O)O)C(=O)N[C@@H](CC(=O)O)C(=O)N[C@H](C(=O)N[C@H]1CSSC[C@@H](C(=O)N[C@@H](CC(C)C)C(N)=O)NC(=O)CNC(=O)[C@H](Cc2c[nH]c3ccccc23)NC(=O)[C@H](CCCNC(=N)N)NC(=O)[C@@H]2CCCN2C(=O)[C@H](CC(C)C)NC1=O)[C@@H](C)CC` [SA33] (Ac-RLIEDICLPRWGCL-NH2; disulfide 7-13): the “improvement in IC50 relative to core sequence (SA34 and SA19)” value is given as “approximately 6 fold”.

In turn, `CC[C@H](C)[C@H](NC(=O)[C@H](CC(=O)O)NC(C)=O)C(=O)N[C@H]1CSSC[C@@H](C(=O)N[C@@H](CC(C)C)C(N)=O)NC(=O)CNC(=O)[C@H](Cc2c[nH]c3ccccc23)NC(=O)[C@H](CCCNC(=N)N)NC(=O)[C@@H]2CCCN2C(=O)[C@H](CC(C)C)NC1=O` [SA34] (Ac-DICLPRWGCL-NH2; disulfide 3-9) registered a 50% inhibitory concentration (IC50) of roughly 25 µM.

On to `CC[C@H](C)[C@H](NC(C)=O)C(=O)N[C@H]1CSSC[C@@H](C(N)=O)NC(=O)CNC(=O)[C@H](Cc2c[nH]c3ccccc23)NC(=O)[C@H](CCCNC(=N)N)NC(=O)[C@@H]2CCCN2C(=O)[C@H](CC(C)C)NC1=O` [SA36] (Ac-ICLPRWGC-NH2; disulfide 2-8), for which, under “Table 9, rabbit albumin, peptide truncation series, read-out: IC50”, the IC50 is greater than 250 µM.
